Measurements: ChEMBL document CHEMBL5223145, “A small molecule binding to TGGAA pentanucleotide repeats that cause spinocerebellar ataxia type 31” (Bioorg Med Chem Lett, 2023)
The source made the active and inactive calls. The calls are words filed in the database; no cut-off is given here.

Columns and labels:
[1] = Stabilization of GGA/GGA-motif DNA (unknown origin) assessed as increase in melting temperature
[2] = Stabilization of GGC/GGC -motif DNA (unknown origin) assessed as increase in melting temperature
[3] = Stabilization of AGG/AGG-motif DNA (unknown origin) assessed as increase in melting temperature
[4] = Stabilization of GGA/AGG-motif DNA (unknown origin) assessed as increase in melting temperature at 5 to 10 uM; settings: dose 5-10 µM
[5] = Stabilization of GGA/AGA-motif DNA (unknown origin) assessed as increase in melting temperature at 5 to 10 uM; settings: dose 5-10 µM
[6] = Stabilization of AGA/AGA-motif DNA (unknown origin) assessed as increase in melting temperature at 5 to 10 uM; settings: dose 5-10 µM
[7] = Stabilization of GGA/AAA-motif DNA (unknown origin) assessed as increase in melting temperature at 5 to 10 uM; settings: dose 5-10 µM
[8] = Stabilization of AGA/AAA-motif DNA (unknown origin) assessed as increase in melting temperature at 5 to 10 uM; settings: dose 5-10 µM
[9] = Stabilization of AAA/AAA-motif DNA (unknown origin) assessed as increase in melting temperature at 5 to 10 uM; settings: dose 5-10 µM
[10] = Binding affinity to GGA/GGA-motif hairpin DNA (unknown origin) assessed as association constant by isothermal titration calorimetry
[11] = Stabilization of TGGAA DNA (unknown origin) assessed as increase in melting temperature at 2 to 20 uM; settings: dose 2-20 µM

| Structure (SMILES) | Tm [1] | Activity [2] | Activity [3] | Tm [2] | Tm [4] | Tm [5] | Tm [6] | Tm [7] | Tm [8] | Tm [9] | Ka [10] | Tm [11] |
| --- | --- | --- | --- | --- | --- | --- | --- | --- | --- | --- | --- | --- |
| Cc1ccc2ccc(NC(=O)CCN(CCCCN)CCC(=O)Nc3ccc4ccc(C)nc4n3)nc2n1 | 6 °C | inactive | Active |  |  |  |  |  |  |  |  |  |
| Cc1ccc2ccc(NC(=O)OCCCNCCCOC(=O)Nc3ccc4ccc(C)nc4n3)nc2n1 | 6 °C | inactive | Active |  |  |  |  |  |  |  |  |  |
| Cc1ccc2ccc(NC(=O)CCNCCC(=O)Nc3ccc4ccc(C)nc4n3)nc2n1 | 7.5 °C |  | Active | 1.8 °C |  |  |  |  |  |  |  |  |
| Cc1ccc2ccc(NC(=O)CCN(CCC(=O)Nc3ccc4ccc(C)nc4n3)C(=O)CCCN)nc2n1 | 13.8 °C |  | inactive | 4.6 °C | 13.8 °C | 9.8 °C | 11.6 °C | -1.2 °C | 0.3 °C | -1.2 °C | 2.5 10^7/M | 68.5 °C |
